In US20160120864A1, “Novel Pyrrole Derivatives” (priority 2013, published 2016):
Where a name gives a salt, the structure may show the parent alone.

How the values were obtained:
pneumolysin = pneumolysin (Streptococcus pneumoniae serotype 2, UniProt Q04IN8); assay: Inhibition of the haemolytic activity of pneumolysin (sheep erythrocytes); type: cell-based
Experimental: A. Primary In Vitro Assay: Inhibition of the Haemolytic Activity of Pneumolysin
The basis of this assay is that when pneumolysin is added to red blood cells, it induces their lysis and leads to the release of haemoglobin. In the presence of an inhibitory compound, pneumolysin-induced lysis is abolished, the red blood cells pellet at the bottom of the microtitre plate well and the supernatant is clear. However, if the compound is not inhibitory, the red blood cells are lysed and haemoglobin is released into the supernatant.
Test compound solutions (typically at 5 mM in DMSO) were diluted 1:1 in 100% DMSO. The compounds were then two-fold serially diluted in 100% DMSO across 11 wells of 96-well round-bottomed microtitre plate. PBS was then added to all the wells to achieve a 1:10 dilution of the compound in PBS. Pneumolysin was then added at a concentration equal to its LD100. Plates were then incubated at 37° C. for 30-40 min. After the incubation period, an equal volume of 4% (v/v) sheep erythrocyte suspension was added to each well and the plates incubated again at 37° C., for at least 30 min. […] Following the incubation with the erythrocytes, the Absorbance at 595 nm of each well was measured and the data used to determine the IC50 for each test compound. The IC50 values were determined using non-linear regression curve fitting. […]

physchem [1] = type: physicochemical; conditions: buffer; PBS, 37.5° C.; read-out: Chemical stability in aqueous formulation (t½) (converted)
Experimental: (§1) Stability studies were carried out by dissolving 1-2 mg of compound in DMSO (1 mL) followed by addition of 0.4 mL of the resulting solution to stirred PBS solution (9.6 mL) at 37.5° C. A sample (ca. 0.5 mL) was immediately taken for HPLC analysis. Further samples were then taken for analysis at various timepoints thereafter. Half-lives were determined from the decrease in concentration of compound with respect to time.
as §1, with “performed” for “carried out”, “ml)” for “mL)”, “ml” for “mL”, “PBS” for “PBS solution”, “(-j” for “(ca.”, “time-points” for “timepoints”

physchem [2] = type: physicochemical; conditions: for solubility: aqueous buffer, thermodynamic from solid, PBS pH 7.2; for Solubility in aqueous formulations compatible with intravenous dosing (in words): aqueous formulations at the desired concentrations
Experimental: PBS solutions for solubility and stability studies were prepared by dissolving 1 Oxoid™ tablet (obtained from Thermo Scientific) in deionised water (100 mL).
Solubility studies were performed by charging a vial with 5-10 mg of compound followed by the addition of PBS solution to achieve a concentration of 100 mg/ml. If solubility was not observed, the solution was diluted to concentrations of 50 mg/ml, 25 mg/ml and 4 mg/ml consecutively until complete solubility was observed.

[3] = type: in vitro ADME; conditions: mouse plasma, 37° C., starting 10 μM
Experimental: The samples were then analysed by LC-MS/MS to obtain the amount of active compound appearing and prodrug derivative remaining over time.
The prodrug derivative of the invention was assessed in mouse plasma stability assay at a concentration of 10 μM. Test compounds were diluted in DMSO to a final stock concentration of 10 mM. For the purpose of the assay, the stocks prepared were further diluted in DMSO to a concentration of 400 μM and 5 μL were added to 195 μL of mouse plasma (pH 7.4) and then incubated at 37° C. The final concentration of DMSO in the plate was 2.5% (v/v). Reactions were terminated at 0, 15, 30, 60 and 120 min after incubation by adding 400 μL of acetonitrile containing 0.55 μM metoprolol and 1% (v/v) formic acid. The plate was then centrifuged at 3000 rpm, for 45 min, at 4° C. 80 μL of supernatant were transferred into a conical bottom 96 well glass coated plate. 40 μL of water were added prior to analysis for prodrug derivative and active species by LC-MS/MS. This assay was performed by a contract research organisation, Cyprotex Discovery Limited, UK, at the request of the inventors at Leicester.
The quantification of the prodrug compound remaining and the parent active compound appearing was performed as follows:
(1) The parent active compound was quantified using a 6 point calibration curve prepared in deactivated mouse plasma. (2) The percentage of prodrug compound remaining at each time point relative to 0 min sample was calculated from LC-MS/MS peak area ratios (compound peak area/internal standard peak area). This percentage was then used to determine the concentration of the prodrug compound at each time point in reference to the starting concentration (10 μM) at time 0 min.

pneumolysin, sequence (Q04IN8 whole entry): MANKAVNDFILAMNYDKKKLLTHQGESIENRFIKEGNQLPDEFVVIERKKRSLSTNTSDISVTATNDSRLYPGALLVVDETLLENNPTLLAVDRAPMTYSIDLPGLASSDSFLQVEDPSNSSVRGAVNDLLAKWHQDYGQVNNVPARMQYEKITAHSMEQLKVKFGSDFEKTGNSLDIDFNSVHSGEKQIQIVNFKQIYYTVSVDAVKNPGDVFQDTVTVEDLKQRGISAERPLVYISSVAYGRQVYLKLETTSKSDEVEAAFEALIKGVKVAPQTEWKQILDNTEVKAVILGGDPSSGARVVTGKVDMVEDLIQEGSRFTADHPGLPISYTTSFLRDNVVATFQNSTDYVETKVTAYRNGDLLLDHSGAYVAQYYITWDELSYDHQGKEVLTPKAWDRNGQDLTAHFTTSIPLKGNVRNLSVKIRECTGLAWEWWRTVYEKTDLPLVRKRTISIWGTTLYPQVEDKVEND

SMILES	IC50 (pneumolysin)	half-life (physchem [1])	solubility (physchem [2])	Solubility in aqueous formulations compatible with intravenous dosing (in words) (physchem [2])	Prodrug (UL7-002) concentration remaining, t0 min. ([3]; 0 min)	Prodrug (UL7-002) concentration remaining, t15 min. ([3]; 15 min)	Prodrug (UL7-002) concentration remaining, t30 min. ([3]; 30 min)	Prodrug (UL7-002) concentration remaining, t60 min. ([3]; 60 min)	Prodrug (UL7-002) concentration remaining, t120 min. ([3]; 120 min)
COc1ccc(-n2c(C(=O)N3CCN(C)CC3)c(O)c(O)c2C(=O)N2CCN(C)CC2)cc1 [UL7-001, (3,4-Dihydroxy-1-(4-methoxyphenyl)-1H-pyrrole-2,5-diyl)bis((4-methylpiperazin-1-yl)methanone)]	0.3 µM	< 30 min	≥ 100 mg/mL	readily soluble					
COc1ccc(-n2c(C(=O)N3CCN(C)CC3)c(OC(=O)C(C)C)c(OC(=O)C(C)C)c2C(=O)N2CCN(C)CC2)cc1 [UL7-002, 1-(4-Methoxyphenyl)-2,5-bis(4-methylpiperazine-1-carbonyl)-1H-pyrrole-3,4-diyl bis(2-methylpropanoate)dihydrochloride]	6.8 µM	2820 min	≥ 100 mg/mL	readily soluble	10.00 µM	0.00 µM	0.01 µM	0.00 µM	0.00 µM
